Drawing on PubChem BioAssay AID624323 (Sanford-Burnham Center for Chemical Genomics, 2012), this text covers solubility for 53 compounds.

In brackets after ≈: the same amount, converted by molar mass.

A word on the solubility: it is how much of the substance goes into solution per volume.

The first data set deals with aqueous buffer solubility, pH 5.0/6.2/7.4. The data set is described as follows: compound solubility, pH 5.0, 6.2, 7.4 – biophysical, set 2, ADME assay (AID 624323). As to conditions: measured here: solubility at pH 5.0; at 100 µM; stronger effect = higher value.
The compound `O=c1[nH]c2c(s1)C(c1cccnc1)C1C3CCC(C3)C1S2` (stereo not given) showed a solubility of 24 µg/mL (≈ 75.8 µM).
Still for that read-out and setting: then `COc1ccc(Sc2ccc(NC(=O)c3ccccc3Cl)cc2C#N)cc1`, with 0.01 µg/mL (≈ 0.0253 µM); and `Cc1ccc(NC(=O)CCC(=O)N/N=C/c2ccc([N+](=O)[O-])o2)cc1C`, with 0.19 µg/mL (≈ 0.53 µM).
Still for that read-out and setting: then `O=C(CSc1cccc2cccnc12)N1CCCC1`, with above 27 µg/mL; and `CCCN1CNc2c(c(=O)[nH]c(=S)n2CCc2ccc(OC)c(OC)c2)C1`, with above 39 µg/mL; and `O=S1(=O)Nc2c(ccc3cccnc23)-c2ccccc21`, with 9.6 µg/mL (≈ 34 µM).
On the same count and under the same terms, then `COc1ccc(S(=O)(=O)n2nc(OC(=O)c3ccccc3)cc2N)cc1`, with 0.46 µg/mL (≈ 1.23 µM); and `O=C(CCNS(=O)(=O)c1cccc2nsnc12)N1CCN(c2ccccn2)CC1`, with 35.8 µg/mL (≈ 82.8 µM).
As for `CC(=O)c1ccc(N2CCN(S(=O)(=O)c3ccc4c(c3)CC(=O)N4)CC2)cc1`, the solubility was determined as 3.2 µg/mL (≈ 8.01 µM).
Compound `CCCC(=O)Nc1cccc(NC(=O)c2ccccc2Br)c1` had a solubility above 36 µg/mL.
Still for that read-out and setting: then `Cc1ccc(S(=O)(=O)NCc2ccc(C(=O)NCCN(Cc3ccccc3)C(C)C)cc2)cc1`, with above 47 µg/mL.
Still for that read-out and setting: the figure for `COc1ccc(OC)c(S(=O)(=O)Nc2cnc3ccccc3c2)c1` is 20.8 µg/mL (≈ 60.4 µM); for `COc1ccccc1N(/N=C1\Sc2ccccc2C1=O)C(C)=O` it is 2.4 µg/mL (≈ 7.35 µM).
Compound `CCOc1ccc(NC(=S)N2CCC(C(O)(c3ccccc3)c3ccccc3)CC2)cc1` returned a solubility of 1.1 µg/mL (≈ 2.46 µM).
On the same count and under the same terms, the figure for `Cc1ccc(N2CCN(S(=O)(=O)N3CCCCC3)CC2)c(C)c1` is 1.8 µg/mL (≈ 5.33 µM).
The same measure, in the same setting: the figure for `COc1ccc(S(=O)(=O)N2CCN(S(=O)(=O)c3ccc4c(c3)OCCO4)CC2)cc1` is 0.13 µg/mL (≈ 0.286 µM); for `CCN1CCN(c2nc3ccccc3nc2C(C#N)C(=O)OC2CCCCC2)CC1` (stereo not given) it is above 40 µg/mL.
On the same count and under the same terms, the figure for `CCc1oc2ccccc2c1C(=O)c1cc(Br)c(O)c(Br)c1` is 0.18 µg/mL (≈ 0.424 µM); for `O=c1c(O)c(-c2cc(O)c(O)c(O)c2)oc2cc(O)cc(O)c12` it is 3.2 µg/mL (≈ 10.1 µM).
Consider `CC1CCCN(C(C(=O)Nc2ccc3c(c2)OCCO3)c2ccccc2)C1` (stereo not given), for which the solubility was above 36 µg/mL.
Still for that read-out and setting: then `Cc1cc2c(s1)c1cnn(Cc3ccccc3F)c(=O)c1n2C`, with 0.16 µg/mL (≈ 0.489 µM); and `O=C(COC(=O)C12CC3CC(CC(C3)C1)C2)NCc1ccco1`, with below 0.1 µg/mL; and `Cc1ccc(S(=O)(=O)C(c2ccccc2)c2c(C)noc2C)cc1` (stereo not given), with 15.5 µg/mL (≈ 45.4 µM).
On to `CN1CSC(=S)N(C)C1`, for which the solubility stood at 12.4 µg/mL (≈ 76.4 µM).
The same measure, in the same setting: the figure for `COc1nc(-c2ccccc2)nnc1-c1ccccc1` is 1 µg/mL (≈ 3.8 µM).
Still for that read-out and setting: the figure for `c1ccc2c(Nc3nnc(-c4ccncc4)s3)cccc2c1` is 3.3 µg/mL (≈ 10.8 µM).
The compound `Cc1cc(C)n(-c2nc(NCCCO)c3c4c(sc3n2)CCCC4)n1` returned a solubility of 17.6 µg/mL (≈ 49.2 µM).

Still in this data set, the particulars now being: measured here: solubility at pH 6.2; at 100 µM; stronger effect = higher value.
For the compound `COc1ccc(CSc2nc(C)cc(=O)[nH]2)cc1`, the solubility was above 26 µg/mL.
Turning to `O=S(=O)(NC1CCCCC1N1CCOCC1)c1ccc(Cl)cc1` (stereo not given), the solubility was above 36 µg/mL.
The same measure, in the same setting: the figure for `O=C(O)c1ccccc1OCc1ccccc1Br` is above 30 µg/mL; for `CCCc1nc2c(=O)n(C)c(=O)nc-2n(C)n1` it is above 23 µg/mL.
`O=c1[nH]c(SCc2ccc(Cl)cc2)nc2c1CCC2` displayed a solubility of 0.52 µg/mL (≈ 1.78 µM).
On the same count and under the same terms, then `O=C1C2CC=CCC2C(=O)N1c1n[nH]c(-c2ccccc2)n1` (stereo not given), with 20.2 µg/mL (≈ 68.6 µM); and `CCCOc1ccc(-c2nc(OC)c3ccccc3n2)cc1`, with below 0.01 µg/mL.
Still for that read-out and setting: the figure for `O=C(O)c1cccnc1SCCc1ccccc1` is above 26 µg/mL; for `N#Cc1ccccc1CSc1nc2ncc(Br)cc2[nH]1` it is 0.52 µg/mL (≈ 1.51 µM); for `COc1ccc(C2c3c(ncn(CCN4CCOCC4)c3=N)Oc3ccc4ccccc4c32)cc1OC` (stereo not given) it is 41.2 µg/mL (≈ 82.6 µM).
The same measure, in the same setting: then `Cc1ccccc1N1CCN(c2ncnc3c2cnn3Cc2ccc(Cl)cc2)CC1`, with below 0.01 µg/mL; and `Brc1ccc2c(c1)CN1CCCC1=N2`, with above 25 µg/mL; and `O=C(O)CCC(NS(=O)(=O)c1ccc(-c2ccccc2)cc1)C(=O)O` (stereo not given), with above 36 µg/mL.
Regarding `COC(=O)c1ccccc1NC(=O)c1ccc(F)cc1`, the solubility came out at 0.9 µg/mL (≈ 3.29 µM).
Compound `Cc1ccc(C)c(NS(=O)(=O)c2cc(C(=O)Nc3ccccc3-c3ccccc3)ccc2Cl)c1` registered a solubility below 0.1 µg/mL.
As for `COc1cc(NC(=O)c2cc(C3CC3)on2)c(OC)cc1Cl`, the solubility amounted to 0.05 µg/mL (≈ 0.155 µM).
The same measure, in the same setting: then `Cc1ccc(C)c(OCCn2cc(C(=O)O)c3ccccc32)c1`, with 0.34 µg/mL (≈ 1.1 µM); and `COc1ccc(CNCc2cccc3ccccc23)cc1`, with above 36 µg/mL.
The same measure, in the same setting: then `O=C(COc1ccccc1Br)NCCc1nc2ccccc2[nH]1`, with above 37 µg/mL; and `CN(C)c1oc(-c2ccc(OCc3ccc(Cl)cc3)cc2)nc1C#N`, with below 0.01 µg/mL.
The same measure, in the same setting: then `c1ccc(-c2nnc(N3CCOCC3)nc2-c2ccccc2)cc1`, with 1.8 µg/mL (≈ 5.65 µM).
`CCOC(=O)C(C)Oc1cccc2c(=O)n(CC(=O)Nc3ccc4c(c3)OCCO4)ccc12` (stereo not given) had a solubility of 0.31 µg/mL (≈ 0.685 µM).
Compound `Cc1ccc(-n2c(N)c(C#N)c(-c3ccccc3)c(C#N)c2=O)cc1` yielded a solubility of 0.93 µg/mL (≈ 2.85 µM).
Still for that read-out and setting: then `Cc1nc(SCc2nc3ccccc3[nH]2)c2oc3ccccc3c2n1`, with 0.22 µg/mL (≈ 0.635 µM); and `Brc1cc2c(cc1C1Nc3ccccc3C3C=CCC31)OCO2` (stereo not given), with 0.04 µg/mL (≈ 0.108 µM).
The same measure, in the same setting: the figure for `O=C1CCCC2=C1C1(CCCC1)N=C(Nc1nc3ccccc3o1)N2` is 0.09 µg/mL (≈ 0.268 µM); for `O=c1[nH]c2c(s1)C(c1cccnc1)C1C3CCC(C3)C1S2` (stereo not given) it is 21.8 µg/mL (≈ 68.9 µM).
Regarding `COc1ccc(Sc2ccc(NC(=O)c3ccccc3Cl)cc2C#N)cc1`, the solubility was below 0.01 µg/mL.
The same measure, in the same setting: the figure for `Cc1ccc(NC(=O)CCC(=O)N/N=C/c2ccc([N+](=O)[O-])o2)cc1C` is 0.3 µg/mL (≈ 0.837 µM); for `O=C(CSc1cccc2cccnc12)N1CCCC1` it is above 27 µg/mL; for `CCCN1CNc2c(c(=O)[nH]c(=S)n2CCc2ccc(OC)c(OC)c2)C1` it is above 39 µg/mL.
For the compound `O=S1(=O)Nc2c(ccc3cccnc23)-c2ccccc21`, the solubility amounted to 13.6 µg/mL (≈ 48.2 µM).
On the same count and under the same terms, the figure for `COc1ccc(S(=O)(=O)n2nc(OC(=O)c3ccccc3)cc2N)cc1` is 2 µg/mL (≈ 5.36 µM).
The compound `O=C(CCNS(=O)(=O)c1cccc2nsnc12)N1CCN(c2ccccn2)CC1` yielded a solubility of 35.5 µg/mL (≈ 82.1 µM).
On the same count and under the same terms, then `CC(=O)c1ccc(N2CCN(S(=O)(=O)c3ccc4c(c3)CC(=O)N4)CC2)cc1`, with 3.7 µg/mL (≈ 9.26 µM); and `CCCC(=O)Nc1cccc(NC(=O)c2ccccc2Br)c1`, with above 36 µg/mL.
Still for that read-out and setting: then `Cc1ccc(S(=O)(=O)NCc2ccc(C(=O)NCCN(Cc3ccccc3)C(C)C)cc2)cc1`, with 34.7 µg/mL (≈ 72.3 µM).
Still for that read-out and setting: then `COc1ccc(OC)c(S(=O)(=O)Nc2cnc3ccccc3c2)c1`, with 25.7 µg/mL (≈ 74.6 µM).
Turning to `COc1ccccc1N(/N=C1\Sc2ccccc2C1=O)C(C)=O`, the solubility is 2.7 µg/mL (≈ 8.27 µM).
On the same count and under the same terms, the figure for `CCOc1ccc(NC(=S)N2CCC(C(O)(c3ccccc3)c3ccccc3)CC2)cc1` is 0.8 µg/mL (≈ 1.79 µM); for `Cc1ccc(N2CCN(S(=O)(=O)N3CCCCC3)CC2)c(C)c1` it is 1.5 µg/mL (≈ 4.44 µM).
On to `COc1ccc(S(=O)(=O)N2CCN(S(=O)(=O)c3ccc4c(c3)OCCO4)CC2)cc1`, for which the solubility is below 0.1 µg/mL.
On the same count and under the same terms, the figure for `CCN1CCN(c2nc3ccccc3nc2C(C#N)C(=O)OC2CCCCC2)CC1` (stereo not given) is above 40 µg/mL.
Same read-out and setting: the figure for `CCc1oc2ccccc2c1C(=O)c1cc(Br)c(O)c(Br)c1` is 26.1 µg/mL (≈ 61.5 µM); for `O=c1c(O)c(-c2cc(O)c(O)c(O)c2)oc2cc(O)cc(O)c12` it is 5.3 µg/mL (≈ 16.7 µM); for `CC1CCCN(C(C(=O)Nc2ccc3c(c2)OCCO3)c2ccccc2)C1` (stereo not given) it is above 36 µg/mL.
Same read-out and setting: the figure for `Cc1cc2c(s1)c1cnn(Cc3ccccc3F)c(=O)c1n2C` is 0.19 µg/mL (≈ 0.58 µM); for `O=C(COC(=O)C12CC3CC(CC(C3)C1)C2)NCc1ccco1` it is 4.2 µg/mL (≈ 13.2 µM); for `Cc1ccc(S(=O)(=O)C(c2ccccc2)c2c(C)noc2C)cc1` (stereo not given) it is 16.9 µg/mL (≈ 49.5 µM).
For `CN1CSC(=S)N(C)C1`, the solubility was determined as 12.7 µg/mL (≈ 78.3 µM).
Still for that read-out and setting: then `COc1nc(-c2ccccc2)nnc1-c1ccccc1`, with 0.78 µg/mL (≈ 2.96 µM); and `c1ccc2c(Nc3nnc(-c4ccncc4)s3)cccc2c1`, with 3.5 µg/mL (≈ 11.5 µM); and `Cc1cc(C)n(-c2nc(NCCCO)c3c4c(sc3n2)CCCC4)n1`, with 20.4 µg/mL (≈ 57.1 µM).
